From patent US5561042A, “Diamine platinum naphthalimide complexes as antitumor agents” (Cancer Therapy and Research Center, priority 1995, dated 1996) come the findings set out here.

Assay [1] addresses poly (dA.dT) - poly (dA.dT). The assay can be described thus: Ethidium bromide displacement, poly(dA.dT)-poly(dA.dT). The format is binding. The note with it: 1 μM DNA, 1.26 μM ethidium bromide, pH 7.0, read-out: FI50, poly (dA.dT) - poly (dA.dT). The procedure:
(§1) A 10× Binding solution was prepared by combining 0.93 ml of an aqueous NaCl solution (5M), 2.0 ml of an aqueous Tris HCl (500 mM) solution, 0.1 ml of an EDTA solution (500 mM) and 46.97 ml of water. The resultant solution was 93 mM in NaCl, 20 mM in Tris HCl, and 1 mM in EDTA. Stock DNA solution were prepared as follows: Poly (dG·dC)-(dG·dC) (ε254=8.4/mM; 27-7910-02), poly(dA·dT)-(dA·dT) (ε262=6.6/mM; 27-7870-02), and lambda DNA (ε260-7.0/mM; 27-4111-01) were purchased from Pharmacia. Solutions were prepared by resuspending either poly (dG·dC)-(dG·dC) or poly(dA·dT)-(dA·dT)in 1 ml of 10× DNA Binding Solution. Lambda DNA is already in solution as purchased.
(§2) Poly (dG·dC)-(dG·dC), poly(dA·dt)-(dA·dt) and lambda DNA concentrations were determined as follows: 980 μl of 10× DNA Binding Solution was pipetted into a 1 ml cuvette. A blank was run on the UV spectrophotometer. 20 μl of the DNA stock of unknown concentration was then added into the cuvette. The sample was then scanned between 210 nm to 500 nm and the absorbance recorded at 254 nm for poly(dG·dC)-(dG·dC), at 262 nm for poly(dA·dT)-(dA·dT) and at 260 nm for lambda DNA. The solution was transferred to a clean tube. This procedure was followed for three different solutions with the absorbance taken as the average of the three. The concentration of poly(dG·dC)-(dG·dC) stock was calculated to be A254 /8.4×1000 (in μM). The concentration of poly(dA·dT)-(dA·dT) stock was calculated to be A262 /6.6×1000 (in μM). The concentration of lambda DNA stock was calculated to be A260 /7.0×1000 (in μM).
(§3) The binding of the bis-naphthalimides to DNA and to synthetic polynucleotide duplexes was determined by an ethidium bromide displacement assay that measures the reduction of fluorescence when ethidium bromide is displaced from DNA (Baguley, 1981). The fluorescence intensity of a 3 ml solution containing 9.3 mM NaCl, 2 mM Tris-HCl (pH 7.0), 100 μM EDTA, 1 μM DNA (in nucleotides) and 1.26 μM ethidium bromide in a quartz cuvette was measured at the excitation (546 nm) and emission (600 nm) wavelengths on a Shimadzu RF5000U spectrofluorometer. Graded concentrations of agent were then added and the fluorescence intensity was measured. The concentration of compound required to reduce the fluorescence intensity by 50% of that of control (FI50) was determined. Therefore, the lower the FI50 the stronger the binding affinity a particular compound has for DNA.
(§4) The ability of bis-naphthalimides of the present invention and the known anti-cancer agents compound 22 and DMP840, (R,R)-2,2'[1,2-ethanediylbis[imino(1-methyl-2,1-ethanediyl)]]-bis[5-nitro- 1H benz[de]isoquinoline-1,3-(2H)dione]dimethanesulfonate, to bind to DNA and to synthetic oligonucleotide duplexes was measured using an ethidium bromide displacement assay. Ethidium bromide, a known DNA intercalator, has no fluorescence in the absence of DNA; however, fluorescence intensity increases when ethidium bromide binds to DNA. The ethidium bromide displacement assay measures the decrease in fluorescence intensity caused by DNA-bound ethidium bromide with DNA interacting agents.

Assay [2] concerns MCF-7 Human Breast Carcinoma cell line. The assay can be described thus: In vitro growth inhibition (MTT), MCF-7 breast carcinoma. It counts as cell-based. The conditions noted are these: 6 days. The source says:
(§5) P388 murine leukemic cell line was obtained from the DCT Tumor Repository (National Cancer Institute, Frederick Cancer Research and Development, Frederick Md. 21702). HT29 Human Colon Carcinoma cell line was obtained from the American Type Culture Collection (12301 Parklawn Drive, Rockville, Md. 20852). B16 Melanoma cell line was obtained from DuPont Merck Pharmaceutical Company (Glenolden, Pa. 19036). MCF-7 Human Breast Carcinoma cell line was a gift from Dr. K. Osborne (Department of Medicine, The University of Texas Health Science Center at San Antonio, San Antonio, Tex. 78284). All cell lines were incubated at 37° C. in a humidified atmosphere of 5% CO2 -95% air. Murine B16 melanoma cell line was grown in RPMI 1640 medium supplemented with 10% heat-inactivated fetal bovine serum, 2 mM L-glutamine, 50 units/ml penicillin, 50 μg/ml streptomycin, 25 μg/ml gentamycin, 0.75% sodium bicarbonate, 10 mM HEPES buffer (pH 7.4), and 0.06 mg/ml AntiPPLO. Murine P388 leukemic and the human HT-29 colon adenocarcinoma cell lines were maintained in RPMI 1640 medium supplemented with 10% heat-inactivated fetal bovine serum. MCF-7M human breast adenocarcinoma was maintained in IMEM medium supplemented with 5% non heat-inactivated fetal bovine serum and 1 nM insulin.
(§6) Exponentially growing cells (1-2×10^3 cells, unless specified otherwise) in 0.1 ml medium were seeded on day 0 in a 96-well microtiter plate. On day 1, 0.1 ml aliquots of medium containing graded concentrations of test compounds were added in duplicate to the cell plates. After incubation at 37° C. in a humidified incubator for 3 days (P388, B16) or 6 days (HT-29, MCF-7M), the plates were centrifuged briefly and 100 μl of the growth medium was removed. Cell cultures were incubated with 50 μl of 3-(4,5-dimethylthiazol-2-yl)-2,5-diphenyl-tetrazolium bromide [MTT, 1 mg/ml in Dulbecco's phosphate buffered saline (PBS)] for 4 hr at 37° C. The resulting purple formazan precipitate was solubilized with 200 μl of 0.04N HCl in isopropyl alcohol. Absorbance was monitored in a BioRad Model 3550 Microplate Reader at a test wavelength of 570 nm and a reference wavelength of 630 nm. The absorbance was transferred to a PC 486 computer. The IC50 values were determined by a computer program (EZ-ED50) that fit all of the data to the following four-parameterlogistic equation:
(§7) Y=((Am -Ao)/(1+(X/IC50)^n))+Ao
(§8) where Am is the absorbance of control cells, Ao is the absorbance of cells in the presence of highest agent concentration, Y is the observed absorbance, X is the agent concentration, IC50 is the concentration of agent that inhibits the cell growth by 50% of control cells (based on the absorbance) and n is the slope of the curve.

For assay [3], the system named is poly (dG.dC) - poly (dG.dC). The assay is described as follows: Ethidium bromide displacement, poly(dG.dC)-poly(dG.dC). The format is binding. How it is done: as §1, §2, §3, §4
Assay [4] concerns Murine B16 melanoma cell line. The assay can be described thus: In vitro growth inhibition (MTT), B16 melanoma. It counts as cell-based. The note with it: MTT, 3 days.
Text: as §5, §6, §7, §8

Assay [5] relates to HT29 Human Colon Carcinoma cell line. The assay is described as follows: In vitro growth inhibition (MTT), HT29 colon carcinoma. The format is cell-based. The conditions noted are these: 6 days.
Text: as §5, §6, §7, §8

Turning to “8-(3'-nitro-1',8'-naphthalimide)-3,6-diazaoctylamine dichloroplatinum(II) [Compound 21]”, the IC50 in assay [1] came to 173 nM; in assay [2], 66 nM; in assay [3] (ethidium bromide displacement, 1 μM DNA, 1.26 μM ethidium bromide, pH 7.0, read-out: FI50, poly (dG.dC) - poly (dG.dC)), 239 nM; in assay [4] it was 385 nM; in assay [5] it was 129 nM. The “Ratio (AT/GC)” value in assay [3] (FI50 poly(dA.dT)-poly(dA.dT) / FI50 poly(dG.dC)-poly(dG.dC)) was 0.72.
